Patent US20120148586A1, “GLUCAGON-LIKE PROTEIN-1 RECEPTOR (GLP-1R) AGONISTS FOR TREATING AUTOIMMUNE DISORDERS” (priority 2009, published 2012)

Columns and labels:
[1] = system: lymphocytes, monocytes, CD4+, CD8+, CD19+ and Ter119+ cells; experiment: immune cell populations in EAE animals by FACS; assay type: in vivo, mice; settings: spleen, day 5; exendin-4 1 mg/kg or dexamethasone 4 mg/kg daily
[2] = system: IL-17+ and IFN-γ+ cells (Th17 and Th1); experiment: IL-17+ and IFN-γ+ CD4 cells in inguinal lymph nodes by FACS; assay type: in vivo, mice; settings: inguinal lymph node; exendin-4 1 mg/kg or dexamethasone 4 mg/kg daily; day 5 or 7
[3] = system: thymocytes; experiment: CD4, CD8 double positive thymocytes in naïve and EAE animals (Table 5); assay type: in vivo, mice; settings: exendin-4 1 mg/kg or dexamethasone 4 mg/kg, day 6
Excerpt: EAE was induced in 8 week old C57B1/6 mice by subcutaneous injections of MOG/CFA followed by i.p. injection of pertussis toxin. […] Dexamethasone is known to cause T cell death. On day 6 after immunization, thymi were harvested. Thymocytes were isolated, stained with anti-CD4 and anti-CD8 antibodies and analyzed by flow cytometry.

[4] = system: EAE in MOG (35-55) immunized C57BL/6 mice; experiment: EAE clinical score (morbidity) after MOG (35-55) immunization; assay type: in vivo
Experimental: EAE was induced in female C57BL/6 mice by s.c. injection of 200 μg of the encephalitogenic peptide MOG (35-55) emulsified in CFA (Difco) and supplemented with 4 mg/ml of M. tuberculosis (Difco) on experiment day 0, followed immediately and again after 48 hours by 400 ng of pertussis toxin injected i.v.
(§1) Animals were scored for morbidity as follows: 0=normal; 1=limp tail; 2=moderate hind limb weakness; 3=moderately severe hind limb weakness (animal can still walk with difficulty); 4=severe hind limb weakness (animal can move its hind limbs but cannot walk); 5=complete hind limb paralysis; and 6=death.
Another group of mice were treated on a weekly basis with 1mg/kg GAC-1 (n=10). The mice were assessed daily for clinical signs of EAE according to the following scale: 0=normal; 1=limp tail; 2=moderate hind-limb weakness; 3=moderately severe hind-limb weakness (animal can still walk); 4=severe hind-limb weakness (animal can move their hind-limbs but cannot walk); 5=complete hind limb paralysis; 6=death.
In a separate experiment, EAE was induced as described above. […] A second group of animals were treated with 3 mg/kg GAC-1 on day 0 after MOG immunization, followed by weekly treatments of 1 mg/kg GAC-1 starting on day 7 after immunization. A third group of animals were treated daily with PBS (control, n=10). Clinical scores were monitored daily following criteria described above.
as §1, with “At day 5 after immunization, blood samples were taken for measurement of GLP1 levels. […] To monitor disease progression, animals” for “Animals”, “scored daily” for “scored”

[5] = system: glucose and GLP-1 levels; experiment: oral glucose tolerance test; assay type: in vivo, mice; settings: vs methylcellulose
Excerpt: GLP-1 is degraded in vivo by dipeptidyl peptidase-4 (DPP-4). DPP-4 inhibitors include, for example without limitation, sitagliptin, vildagliptin, saxagliptin, linagliptin, dutogliptin, gemigliptin, alogliptin and berberine. To test whether the DPP-4 inhibitor sitagliptin can prevent glucose level increases and elevated GLP-1 levels, four groups of 12 month old male C57BI/6 mice (n=4-5) were fasted overnight and subjected to an oral glucose tolerance test the following morning. One hour prior to oral glucose challenge, test animals were orally dosed with either 1 mg/kg or 10 mg/kg sitagliptin. […] After oral glucose challenge, glucose levels were test at 20, 40, 60 and 120 minutes. Blood samples were also taken at 20 minutes after glucose challenge to check glucose and GLP-1 levels.

[6] = system: GLP-1 levels; experiment: blood GLP1 levels in EAE mice at day 5 after immunization; assay type: in vivo; settings: 10 mg/kg once daily, vs methylcellulose
Excerpt: as §1, with “At day 5 after immunization, blood samples were taken for measurement of GLP1 levels. […] To monitor disease progression, animals” for “Animals”, “scored daily” for “scored”

Row | Structure (SMILES) | reduction of Ter119+ cells in EAE animals [1] | reduction of IL-17+ cells in EAE animals [2] [%] | % CD4, CD8 double positive cells ([3]; EAE mice) [%] | % CD4, CD8 double positive cells ([3]; Naïve mice) [%] | disease score from day 18 to day 20 ([4]; 10 mg/kg once daily, vs methylcellulose) | morbidity (EAE clinical score) ([4]; once daily day 0 to day 28, exendin-4 1 mg/kg, sitagliptin 1 or 10 mg/kg, vs methylcellulose, FIG. 18) | EAE progression / disease symptoms ([4]; once daily day 0 to day 28, exendin-4 1 mg/kg, sitagliptin either 1 mg/kg or 10 mg/kg, FIG. 18) | glucose levels after oral glucose challenge ([5]; 1 mg/kg or 10 mg/kg oral, not statistically significant by two-way ANOVA) | blood GLP-1 levels 20 minutes after oral glucose challenge ([5]; either dose (1 mg/kg or 10 mg/kg oral)) | GLP-1 levels at day 5 after immunization [6]
1 | C[C@@H]1C[C@H]2[C@@H]3CCC4=CC(=O)C=C[C@]4(C)[C@@]3(F)[C@@H](O)C[C@]2(C)[C@@]1(O)C(=O)CO [dexamethasone] | 20-25% | 50 | 1.5±0.5 | 12.4±3.3 |  |  |  |  |  | 
2 | N[C@@H](CC(=O)N1CCn2c(nnc2C(F)(F)F)C1)Cc1cc(F)c(F)cc1F [sitagliptin] |  |  |  |  | significantly lower | significantly reduced morbidity | trend towards attenuating disease symptoms | trend toward lower glucose levels | significantly increased blood GLP-1 levels | significantly higher GLP-1 levels
